From patent publication US20250360167A1 (Keryx Biopharmaceuticals, Inc., priority 2013, published 2025)

Key:
Format in all cases: in vivo, human
hemoglobin [1] = test: Phase 2 trial (Example 2): hemoglobin; conditions: ITT group, n = 72
From the text: The key secondary endpoints of the study were the mean changes in ferritin, hemoglobin and FGF-23 from baseline to the end of the 12-week treatment period versus placebo in the ITT group.

hemoglobin [2] = test: Phase 3 trial (Example 1): hemoglobin; parameters: Hemoglobin, Mean / Hemoglobin, Median / Hemoglobin, Change from Baseline, Mean / Hemoglobin, Change from Baseline, Median / Hemoglobin, LS Mean: unit not given here; conditions: for Hemoglobin, Mean / Hemoglobin, Median / Hemoglobin, LS Mean / Hemoglobin, Change from Baseline, Mean / Hemoglobin, Change from Baseline, Median / Hemoglobin, Treatment Differences, LS Mean (KRX-0502) − LS Mean (control), (SE): Table 17
From the text: Complete Blood Count (CBC) (white blood cell [WBC] count, white blood cell types [WBC differential], red blood cell [RBC] count, hematocrit [HCT], hemoglobin [Hgb], red blood cell indices, platelet [thrombocyte] count) was done at the Randomization Visit (Visit 4); at Visits 11 (Week 12), 14 (Week 24), 17 (Week 36), 20 (Week 48), and 21 (Week 52) of the 52-week Safety Assessment Period; and at Visit 25 (Week 56) of the Efficacy Assessment Period.

serum phosphorus = test: Phase 3 trial (Example 1), four-week placebo-controlled Efficacy Assessment Period: serum phosphorus; conditions: for Serum Phosphorus, Mean / Serum Phosphorus, Median: Efficacy Assessment Period; for Serum Phosphorus, Mean / Serum Phosphorus, Median / Serum Phosphorus, LS Mean / Serum Phosphorus, Treatment Differences, LS Mean (KRX-0502) − LS Mean (Placebo), (SE) / Serum Phosphorus, Change from Baseline, Mean / Serum Phosphorus, Change from Baseline, Median: Table 14; for Serum Phosphorus, Change from Baseline, Mean / Serum Phosphorus, Change from Baseline, Median: Week-52 baseline
From the text: This trial was a three-period, multicenter, safety and efficacy clinical trial.
Period 3 (Efficacy Assessment Period). Following the Safety Assessment Period, those patients randomized to treatment with ferric citrate entered a four-week, randomized, open-label, placebo-controlled Efficacy Assessment Period.
Serum phosphorus and calcium were checked at Visit 5 (Week 1), and every two weeks during the first 12 weeks after Visit 4 (Randomization Visit), and monthly for the rest of the Safety Assessment Period. During the Efficacy Assessment Period, serum phosphorus and calcium were drawn weekly. These values guided study drug administration. While on study drug, the use of other phosphate binders was not permitted. […] The titration of calcium acetate and sevelamer carbonate throughout the 52-week Safety Assessment Period were according to the current package inserts for these agents and/or at the discretion of the site PI.
Serum phosphorus and calcium were performed at Screening (Visit 0); weekly during the Washout Period after Visit 1 (Week −2); at Visit 4 (Randomization Visit); at Visits 5 (Week 1), 6 (Week 2), 7 (Week 4), 8 (Week 6), 9 (Week 8), 10 (Week 10), 11 (Week 12), 12 (Week 16), 13 (Week 20), 14 (Week 24), 15 (Week 28), 16 (Week 32), 17 (Week 36), 18 (Week 40), 19 (Week 44), 20 (Week 48), and 21 (Week 52) of the 52-week Safety Assessment Period; and at Visits 22 (Week 53), 23 (Week 54), 24 (Week 55) and 25 (Week 56) of the Efficacy Assessment Period.
There were two unique and distinct baseline assessments. The baseline for the Safety Assessment Period was the Randomization Visit (Visit 4) and was defined as “Week-O-baseline.” The baseline for the Efficacy Assessment Period was the last visit of the Safety Assessment Period (Visit 21, Week 52) and was defined as “study-baseline.”
The primary efficacy variable was analyzed via an ANCOVA model with treatment as the fixed effect and study-baseline as the covariate. Between-treatment differences were estimated and two-sided 95% confidence intervals for the differences were presented.

[3] = Day 0 Baseline, Safety Assessment Period

With “iron (+3), x (1, 2, 3-propanetricarboxylic acid, 2-hydroxy-), y (H2O) [KRX-0502]” the “Mean Hemoglobin, Baseline” value (hemoglobin [1]; Baseline) was 10.5 g/dL, the “Mean Hemoglobin, End of Treatment (Week 12)” value (hemoglobin [1]; Week 12, last observation carried forward) was 11.0 g/dL and the “Mean Hemoglobin, LS Mean Difference from Active Control Group at Week 52” value (hemoglobin [2]; ANCOVA, Table E) was 0.4 g/dL. For the same substance, the “Mean Hemoglobin” value (hemoglobin [2]; Baseline (Day 0), Table E) was 11.6 g/dL, the “Hemoglobin, Mean” value (hemoglobin [2]; [3]) was 11.61 and the “Hemoglobin, Median” value (hemoglobin [2]; [3]) was 11.45. For the same substance, the “Mean Hemoglobin, Change from Baseline at Week 52” value (hemoglobin [2]; Table E) was -0.2 g/dL, the “Hemoglobin, LS Mean” value (hemoglobin [2]; Week 12, ANCOVA) was 11.83 and the “Hemoglobin, Change from Baseline, Mean” value (hemoglobin [2]; Week 12) was 0.19. The “Hemoglobin, Change from Baseline, Median” value (hemoglobin [2]; Week 12) was 0.10, the “Hemoglobin, Mean” value (hemoglobin [2]; Week 12) was 11.82 and the “Hemoglobin, Median” value (hemoglobin [2]; Week 12) was 11.70. The “Hemoglobin, Treatment Differences, LS Mean (KRX-0502) − LS Mean (control), (SE)” value (“Hemoglobin, Treatment Differences … (SE)” below) (hemoglobin [2]; Week 12) was 0.30 (0.14), the “Hemoglobin, LS Mean” value (hemoglobin [2]; Week 24, ANCOVA) was 11.56 and the “Hemoglobin, Change from Baseline, Mean” value (hemoglobin [2]; Week 24) was −0.08. For the same substance, the “Hemoglobin, Change from Baseline, Median” value (hemoglobin [2]; Week 24) was −0.10, the “Hemoglobin, Mean” value (hemoglobin [2]; Week 24) was 11.55 and the “Hemoglobin, Median” value (hemoglobin [2]; Week 24) was 11.30. For the same substance, the “Hemoglobin, Treatment Differences … (SE)” value (hemoglobin [2]; Week 24) was 0.12 (0.13), the “Hemoglobin, LS Mean” value (hemoglobin [2]; Week 36, ANCOVA) was 11.55 and the “Hemoglobin, Change from Baseline, Mean” value (hemoglobin [2]; Week 36) was −0.08. For the same substance, the “Hemoglobin, Change from Baseline, Median” value (hemoglobin [2]; Week 36) was −0.10, the “Hemoglobin, Mean” value (hemoglobin [2]; Week 36) was 11.54 and the “Hemoglobin, Median” value (hemoglobin [2]; Week 36) was 11.20. For the same substance, the “Hemoglobin, Treatment Differences … (SE)” value (hemoglobin [2]; Week 36) was 0.27 (0.14), the “Hemoglobin, LS Mean” value (hemoglobin [2]; Week 48, ANCOVA) was 11.52 and the “Hemoglobin, Change from Baseline, Mean” value (hemoglobin [2]; Week 48) was −0.12. For the same substance, the “Hemoglobin, Change from Baseline, Median” value (hemoglobin [2]; Week 48) was −0.20, the “Hemoglobin, Mean” value (hemoglobin [2]; Week 48) was 11.50 and the “Hemoglobin, Median” value (hemoglobin [2]; Week 48) was 11.20. For the same substance, the “Hemoglobin, Treatment Differences … (SE)” value (hemoglobin [2]; Week 48) was 0.30 (0.14), the “Hemoglobin, LS Mean” value (hemoglobin [2]; Week 52, ANCOVA) was 11.44 and the “Mean Hemoglobin” value (hemoglobin [2]; Week 52, LOCF, Table E) was 11.4 g/dL. The “Hemoglobin, Change from Baseline, Mean” value (hemoglobin [2]; Week 52) was −0.20, the “Hemoglobin, Change from Baseline, Median” value (hemoglobin [2]; Week 52) was −0.20 and the “Hemoglobin, Mean” value (hemoglobin [2]; Week 52) was 11.42. The “Hemoglobin, Median” value (hemoglobin [2]; Week 52) was 11.20, the “Hemoglobin, Treatment Differences … (SE)” value (hemoglobin [2]; Week 52) was 0.36 (0.14) and the “Mean Serum Phosphorus” value (serum phosphorus; End of Treatment (Week 56), LOCF, Table A) was 4.9 mg/dL. The “Serum Phosphorus, Mean” value (serum phosphorus; Week 52 Baseline) was 5.16, the “Serum Phosphorus, Median” value (serum phosphorus; Week 52 Baseline) was 5.10 and the “Serum Phosphorus, LS Mean” value (serum phosphorus; Week 53, ANCOVA) was 4.92. The “Serum Phosphorus, Mean” value (serum phosphorus; Week 53) was 4.90, the “Serum Phosphorus, Median” value (serum phosphorus; Week 53) was 4.95 and the “Serum Phosphorus, Treatment Differences, LS Mean (KRX-0502) − LS Mean (Placebo), (SE)” value (from here on “Serum Phosphorus, Treatment Differences … (SE)”) (serum phosphorus; Week 53) was −1.73 (0.21). For the same substance, the “Serum Phosphorus, Change from Baseline, Mean” value (serum phosphorus; Week 53) was −0.31, the “Serum Phosphorus, Change from Baseline, Median” value (serum phosphorus; Week 53) was −0.30 and the “Serum Phosphorus, LS Mean” value (serum phosphorus; Week 54, ANCOVA) was 4.80. The “Serum Phosphorus, Mean” value (serum phosphorus; Week 54) was 4.78, the “Serum Phosphorus, Median” value (serum phosphorus; Week 54) was 4.70 and the “Serum Phosphorus, Treatment Differences … (SE)” value (serum phosphorus; Week 54) was −2.08 (0.22). For the same substance, the “Serum Phosphorus, Change from Baseline, Mean” value (serum phosphorus; Week 54) was −0.36, the “Serum Phosphorus, Change from Baseline, Median” value (serum phosphorus; Week 54) was −0.40 and the “Serum Phosphorus, LS Mean” value (serum phosphorus; Week 55, ANCOVA) was 4.76. For the same substance, the “Serum Phosphorus, Mean” value (serum phosphorus; Week 55) was 4.75, the “Serum Phosphorus, Median” value (serum phosphorus; Week 55) was 4.60 and the “Serum Phosphorus, Treatment Differences … (SE)” value (serum phosphorus; Week 55) was −2.18 (0.23). For the same substance, the “Serum Phosphorus, Change from Baseline, Mean” value (serum phosphorus; Week 55) was −0.41, the “Serum Phosphorus, Change from Baseline, Median” value (serum phosphorus; Week 55) was −0.50 and the “Serum Phosphorus, LS Mean” value (serum phosphorus; Week 56, ANCOVA) was 4.94. The “Mean Serum Phosphorus, Least Squares (LS) Mean Difference from Placebo” value (serum phosphorus; Week 56, ANCOVA, Table A) was -2.3 mg/dL, the “Serum Phosphorus, Mean” value (serum phosphorus; Week 56) was 4.92 and the “Serum Phosphorus, Median” value (serum phosphorus; Week 56) was 4.60. The “Serum Phosphorus, Treatment Differences … (SE)” value (serum phosphorus; Week 56) was −2.28 (0.23), the “Serum Phosphorus, Change from Baseline, Mean” value (serum phosphorus; Week 56) was −0.23 and the “Serum Phosphorus, Change from Baseline, Median” value (serum phosphorus; Week 56) was −0.50. The “Mean Serum Phosphorus” value (serum phosphorus; baseline Week 52, Table A) was 5.2 mg/dL and the “Mean Serum Phosphorus, Change from Baseline at Week 56” value (serum phosphorus; baseline Week 52, Table A) was -0.3 mg/dL.
